Reference: EP0286578A1, “4,15-Disubstituted 4-androsten-3,17-diones, and process for their preparation” (SCHERING AKTIENGESELLSCHAFT, priority 1987, dated 1988)

Biological target: T1, Aromatase (Rattus norvegicus, UniProt P22443)
T1 construct: Invantile weibliche Ratten reagieren auf PMSG (Pregnant Mare's Serum Gonadotropin)-Behandlung mit einheitlich erhöhter Steroidsynthese; from tissue; host or cells: living infantile female rats (whole animal; serum estradiol read-out)
T1 sequence (P22443 1-508): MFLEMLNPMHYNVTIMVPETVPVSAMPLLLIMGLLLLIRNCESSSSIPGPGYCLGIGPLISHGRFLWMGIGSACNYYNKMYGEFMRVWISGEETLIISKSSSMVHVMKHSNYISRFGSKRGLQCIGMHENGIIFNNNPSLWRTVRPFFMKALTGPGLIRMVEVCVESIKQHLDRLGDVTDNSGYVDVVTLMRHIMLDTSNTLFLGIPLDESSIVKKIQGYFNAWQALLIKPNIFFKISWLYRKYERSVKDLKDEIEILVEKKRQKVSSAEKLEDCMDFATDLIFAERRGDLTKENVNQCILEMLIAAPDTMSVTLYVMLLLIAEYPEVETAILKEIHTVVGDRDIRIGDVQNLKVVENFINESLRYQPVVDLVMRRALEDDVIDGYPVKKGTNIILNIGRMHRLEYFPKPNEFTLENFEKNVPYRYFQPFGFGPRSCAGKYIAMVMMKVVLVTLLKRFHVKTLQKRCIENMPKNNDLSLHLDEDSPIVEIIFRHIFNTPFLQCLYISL
Assay: PMSG test in infantile female rats (serum estradiol by radioimmunoassay)
Type: in vivo, Ratte
Settings: for Konzentration im Serum Östradiol: infantile Ratten, PMSG-stimulated, 2 x 10 mg/Tier p.o., serum 24 h after last PMSG, mean ± SD, 10 animals per group

Compound | Wirksamkeit (PMSG test, oral application, dose range tested 2 x 10 mg, result in words) | Konzentration im Serum Östradiol
C[C@]12CCC(=O)C(O)=C1CC[C@@H]1[C@@H]2CC[C@]2(C)C(=O)CC[C@@H]12 [A, 4-Hydroxy-4-androsten-3,17-dion] | keine Wirksamkeit | 3,45 ± 0,18 nMol/l
CC[C@@H]1CC(=O)[C@@]2(C)CC[C@H]3[C@@H](CCC4=C(O)C(=O)CC[C@@]43C)[C@H]12 [B, 15β-Ethyl-4-hydroxy-4-androsten-3,17-dion] |  | 2,83 ± 0,29 nMol/l
CC[C@@H]1CC(=O)[C@@]2(C)CC[C@H]3[C@@H](CCC4=C(OC(C)=O)C(=O)CC[C@@]43C)[C@H]12 [C, 4-Acetoxy-15β-ethyl-4-androsten-3,17-dion] |  | 2,34 ± 0,46 nMol/l
